Tests used:
HLA B*1501 = HLA B*1501 (Homo sapiens, UniProt P01889, A329T/A93T/A95T/C349S/D201E/D98Y/E187L/E204Q/E69M/E70A/K202T/N87E/Q94N/R155S/R180W/S121R/S35A/S48A/V306I/V36M/Y140S/Y91S); test: biochemical; format: binding
HLA B*1503 = HLA B*1503 (Homo sapiens, UniProt P01889, A329T/A93T/A95T/C349S/D201E/D98Y/E187L/E204Q/K202T/N87E/Q94N/R155S/R180L/S121R/S35A/V306I/V36M/Y140S/Y91S); test: biochemical; format: binding
H-2 K^k = H-2 K^k (Mus musculus, UniProt P04223); format: binding
HLA B*5401 = HLA B*5401 (Homo sapiens, UniProt P01889, A329T/C349S/D138N/D201E/E176V/E187T/E204Q/E69G/I76V/K202T/L119W/R155S/R180L/S121T/S35A/S48A/V127L/V306I/V36M/Y140L); format: binding
HLA A*3001 = HLA A*3001 (Homo sapiens, UniProt P04439, D140H/D185E/E176W/F33S/G80R/H175R/K168Q/R138E/R41S); test: biochemical; format: binding
HLA A*3201 = HLA A*3201 (Homo sapiens, UniProt P04439, A270S/D101S/D185E/E176V/E277Q/F133L/G103R/G107R/G231S/H175R/I121M/I218V/I322F/K168Q/L105A/L300P/L318F/M331R/P208A/P217A/Q94H/R106L/R138Q/S129P/T104I/T323A/T345S/V100E/V321M/V358M); test: biochemical; format: binding
HLA B*0801 = HLA B*0801 (Homo sapiens, UniProt P01889, A93T/A95T/D138N/E176V/E187T/K202T/Q94N/R180D/S35A/V36M/Y33D/Y91F); test: biochemical; format: binding
HLA B*5101 = HLA B*5101 (Homo sapiens, UniProt P01889, A329T/A93T/A95T/C349S/D138N/D201E/D98Y/E187L/E204Q/E69T/G107R/I218V/K202T/L105A/L119W/N104I/Q94N/R106L/R155S/R180L/S101N/S121T/S35A/S48A/V306I/V36M/Y195H/Y91F); format: binding
HLA B*5301 = HLA B*5301 (Homo sapiens, UniProt P01889, A329T/A93T/A95T/C349S/D201E/D98Y/E176V/E187L/E204Q/E69T/G107R/I218V/K202T/L105A/L119I/N104I/Q94N/R106L/R155S/R180L/S101N/S121R/S35A/S48A/T118I/V127L/V306I/V36M/Y140S/Y91F); format: binding
HLA A*6802 = HLA A*6802 (Homo sapiens, UniProt P04439, A269V/D140Y/D185E/E176V/E277Q/E87N/F33Y/G231S/I121R/I166T/I218V/L180W/L300P/L318F/N151K/P208A/P217A/Q86R/R138H/R169H/S129P/T345S/V36M); format: binding
H-2 D^d = H-2 D^d (Mus musculus, UniProt P01900); format: binding
H-2 D^d, sequence (P01900 whole entry, looked up): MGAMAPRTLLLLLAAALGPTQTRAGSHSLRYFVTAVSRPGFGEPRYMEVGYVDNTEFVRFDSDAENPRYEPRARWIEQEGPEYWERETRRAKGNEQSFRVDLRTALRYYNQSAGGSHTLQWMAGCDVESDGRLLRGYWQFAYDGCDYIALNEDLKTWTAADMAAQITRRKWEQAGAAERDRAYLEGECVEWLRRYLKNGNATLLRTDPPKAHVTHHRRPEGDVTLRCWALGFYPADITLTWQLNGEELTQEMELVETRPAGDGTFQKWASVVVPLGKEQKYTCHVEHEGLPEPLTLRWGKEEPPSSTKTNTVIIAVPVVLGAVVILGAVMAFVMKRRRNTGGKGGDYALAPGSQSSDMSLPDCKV

HLA B*2705 = HLA B*2705 (Homo sapiens, UniProt P01889, D138H/D201E/E176V/E204Q/G107R/H137Y/K202T/N104T/N87E/Q56L/Q94K/R106L/R155S/R180L/S101D/S121N/S48T/Y140D/Y33H/Y91C); format: binding; conditions: positional scanning combinatorial 9-mer library; normalized to 1.0 for the best residue at each position
HLA B*5801 = HLA B*5801 (Homo sapiens, UniProt P01889, A329T/C349S/D201E/D98Y/E176V/E187L/E204Q/E69T/G107R/I218V/I90N/K202T/L105A/L119I/N104I/N87E/Q89R/Q94S/R106L/R155S/R180L/R86G/S101N/S121R/S35A/S48A/T118I/V127L/V306I/V36M/Y140S/Y91M); format: binding
HLA B*0702 = HLA B*0702 (Homo sapiens, UniProt P01889); format: binding; conditions: positional scanning combinatorial 9-mer library; normalized to 1.0 for the best residue at each position
H-2 D^b = H-2 D^b (Mus musculus, UniProt P01899); format: binding
H-2 D^b, sequence (P01887 21-119): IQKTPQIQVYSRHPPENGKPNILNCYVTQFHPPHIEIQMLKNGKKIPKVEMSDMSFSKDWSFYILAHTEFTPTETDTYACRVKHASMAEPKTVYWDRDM
H-2 D^b, sequence (P01899 25-362): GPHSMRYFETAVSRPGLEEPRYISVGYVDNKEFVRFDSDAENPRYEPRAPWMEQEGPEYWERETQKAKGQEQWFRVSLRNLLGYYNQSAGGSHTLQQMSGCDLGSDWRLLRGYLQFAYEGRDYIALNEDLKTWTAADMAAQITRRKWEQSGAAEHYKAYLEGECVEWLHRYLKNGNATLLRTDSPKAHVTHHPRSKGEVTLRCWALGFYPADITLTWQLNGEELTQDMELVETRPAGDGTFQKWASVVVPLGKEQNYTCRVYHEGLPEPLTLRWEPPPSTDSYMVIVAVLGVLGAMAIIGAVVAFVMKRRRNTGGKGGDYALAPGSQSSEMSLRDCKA

HLA B*5802 = HLA B*5802 (Homo sapiens, UniProt P01889, A329T/C349S/D201E/D98Y/E176V/E187L/E204Q/E69T/G107R/I218V/I90N/K202T/L105A/N104I/N87E/Q89R/Q94S/R106L/R155S/R180L/R86G/S101N/S121W/S35A/S48A/V127L/V306I/V36M/Y140S/Y91M); format: binding
HLA B*3501 = HLA B*3501 (Homo sapiens, UniProt P01889, A329T/A93T/A95T/C349S/D201E/D98Y/E176V/E187L/E204Q/E69T/I218V/K202T/L119I/Q94N/R155S/R180L/S121R/S35A/S48A/T118I/V127L/V306I/V36M/Y140S/Y91F); format: binding
HLA A*0201 = HLA A*0201 (Homo sapiens, UniProt P04439, D140Y/D185E/D98H/E176V/E277Q/G131W/G231S/I119V/I121R/I166T/I218V/L300P/L318F/N151K/N90K/P208A/P217A/Q86G/Q94H/R138H/R169H/T345S); conditions: positional scanning combinatorial 9-mer library; normalized to 1.0 for the best residue at each position

H-2 K^k, sequence (P01887 21-119): as the sequence (P01887 21-119) above
H-2 K^k, sequence (P04223 22-369): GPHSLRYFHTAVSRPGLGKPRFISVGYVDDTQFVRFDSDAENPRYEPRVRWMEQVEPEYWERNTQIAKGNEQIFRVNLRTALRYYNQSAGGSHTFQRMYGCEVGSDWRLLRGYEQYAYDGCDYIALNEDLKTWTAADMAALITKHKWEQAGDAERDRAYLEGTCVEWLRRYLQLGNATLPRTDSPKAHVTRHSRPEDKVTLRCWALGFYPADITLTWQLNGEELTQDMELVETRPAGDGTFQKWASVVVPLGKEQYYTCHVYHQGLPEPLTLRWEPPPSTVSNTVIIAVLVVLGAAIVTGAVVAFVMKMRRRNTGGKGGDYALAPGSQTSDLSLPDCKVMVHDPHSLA

Row | Sequence | Normalized average relative binding affinity (ARB), HLA B*1501 (HLA B*1501) | Normalized average relative binding affinity (ARB), HLA B*1503 (HLA B*1503) | Normalized average relative binding affinity (ARB), H-2 Kk (H-2 K^k) | Normalized average relative binding affinity (ARB), HLA B*5401 (HLA B*5401) | Normalized average relative binding affinity (ARB), HLA A*3001 (HLA A*3001) | Normalized average relative binding affinity (ARB), HLA A*3201 (HLA A*3201) | Normalized average relative binding affinity (ARB), HLA B*0801 (HLA B*0801) | Normalized average relative binding affinity (ARB), HLA B*5101 (HLA B*5101) | Normalized average relative binding affinity (ARB), HLA B*5301 (HLA B*5301) | Normalized average relative binding affinity (ARB), HLA A*6802 (HLA A*6802) | Normalized average relative binding affinity (ARB), H-2 Dd (H-2 D^d) | Normalized average relative binding affinity (ARB), HLA B*2705 (HLA B*2705) | Normalized average relative binding affinity (ARB), HLA B*5801 (HLA B*5801) | Normalized average relative binding affinity (ARB), HLA B*0702 (HLA B*0702) | Normalized average relative binding affinity (ARB), H-2 Db (H-2 D^b) | Normalized average relative binding affinity (ARB), HLA B*5802 (HLA B*5802) | Normalized average relative binding affinity (ARB), HLA B*3501 (HLA B*3501) | Normalized average relative binding affinity (ARB), HLA A*0201 (HLA A*0201)
1 | XGXXXXXXX [3064.0026] | 0.095 | 0.042 | 0.0063 | 0.011 | 0.22 | 0.025 | 0.17 | 0.16 | 0.022 | 0.014 | 1.0 | 0.0016 | 0.14 | 0.0028 | 0.42 | 0.077 | 0.063 | 0.0090
2 | XHXXXXXXX [3064.0027] | 0.015 | 0.16 | 0.0052 | 0.0014 | 0.082 | 0.047 | 0.028 | 0.029 | 0.0036 | 0.0031 | 0.061 | 0.0065 | 0.061 | 0.0028 | 0.099 | 0.030 | 0.0078 | 0.0016
3 | XIXXXXXXX [3064.0028] | 0.42 | 0.026 | 0.0026 | 0.0071 | 0.18 | 0.35 | 0.24 | 0.047 | 0.11 | 0.15 | 0.018 | 0.0022 | 0.046 | 0.033 | 0.076 | 0.11 | 0.032 | 0.057
4 | XKXXXXXXX [3064.0029] | 0.0091 | 0.29 | 0.0031 | 0.0038 | 0.026 | 0.0079 | 0.097 | 0.022 | 0.0053 | 0.011 | 0.093 | 0.0076 | 0.014 | 0.0028 | 0.052 | 0.045 | 0.0078 | 0.012

Source: paper PMC2248166, “Quantitative peptide binding motifs for 19 human and mouse MHC class I molecules derived using positional scanning combinatorial peptide libraries” (Immunome Research, 2008)
